Measurements as given in US11802120B2, “Fused cyclic urea derivatives as CRHR2 antagonist” (RaQualia Pharma Inc., priority 2018, dated 2023).

Target: T1, human CRHR2-alpha (Homo sapiens, UniProt Q13324)
T1 sequence (Q13324 1-411): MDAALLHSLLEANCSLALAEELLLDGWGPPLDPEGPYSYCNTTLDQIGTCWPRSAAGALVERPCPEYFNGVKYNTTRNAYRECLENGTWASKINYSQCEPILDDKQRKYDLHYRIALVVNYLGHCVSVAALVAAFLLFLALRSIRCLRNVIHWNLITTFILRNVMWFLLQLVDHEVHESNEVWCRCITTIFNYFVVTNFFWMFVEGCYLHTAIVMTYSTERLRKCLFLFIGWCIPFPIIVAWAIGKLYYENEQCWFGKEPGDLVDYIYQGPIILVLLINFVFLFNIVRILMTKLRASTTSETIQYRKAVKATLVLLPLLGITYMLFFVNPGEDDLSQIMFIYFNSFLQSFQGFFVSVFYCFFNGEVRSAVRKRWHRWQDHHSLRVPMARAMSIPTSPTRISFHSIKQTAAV
Assay: cAMP functional assay for human CRHR2 (LANCE Ultra cAMP, TR-FRET)
Type: cell-based
Settings: CHO-K1 cells expressing human CRHR2-alpha, agonist human urocortin2 at EC80, cAMP; read-out: IC50 against CRHR2
Outline: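 CHO-K1 cells stably expressing each receptor, serum-starved and cryopreserved, were preincubated with compound 30 min at 25° C in HBSS buffer with 0.5 mM IBMX, pH 7.4, then stimulated 30 min with EC80 agonist (urocortin2 for CRHR2, CRF for CRHR1). cAMP read by TR-FRET; IC50 from percent-inhibition curves.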

Compound | IC50
CN(C)c1cccc(-n2c(=O)n(C[C@H]3CC[C@H](NC(=O)c4cc(Cl)cnc4C(F)F)CC3)c3ccccc32)n1 [Example 659, 5-chloro-2-(difluoromethyl)-N-((1r,4r)-4-((3-(6-(dimethyl-amino)pyridin-2-yl)-2-oxo-2,3-dihydro-1H-benzo[d]imidazol-1-yl)methyl)cyclo-hexyl)nicotinamide] | < 300 nM
CNc1ccc(-n2c(=O)n(C[C@H]3CC[C@H](NC(=O)c4cc(Cl)cnc4C(F)F)CC3)c3ccccc32)nc1 [Example 660, 5-chloro-2-(difluoromethyl)-N-((1r,4r)-4-((3-(5-(methylamino)pyridin-2-yl)-2-oxo-2,3-dihydro-1H-benzo[d]imidazol-1-yl)methyl)cyclohexyl)nicotinamide] | < 300 nM
CNc1cc(-n2c(=O)n(C[C@H]3CC[C@H](NC(=O)c4cc(Cl)cnc4C(F)F)CC3)c3ccccc32)ccn1 [Example 661, 5-chloro-2-(difluoromethyl)-N-((1r,4r)-4-((3-(2-(methylamino)pyridin-4-yl)-2-oxo-2,3-dihydro-1H-benzo[d]imidazol-1-yl)methyl)cyclohexyl)nicotinamide] | < 300 nM
CNc1cccc(-n2c(=O)n(C[C@H]3CC[C@H](NC(=O)c4cc(Cl)cnc4C(F)F)CC3)c3ccccc32)n1 [Example 662, 5-chloro-2-(difluoromethyl)-N-((1r,4r)-4-((3-(6-(methylamino)pyridin-2-yl)-2-oxo-2,3-dihydro-1H-benzo[d]imidazol-1-yl)methyl)cyclohexyl)nicotinamide] | < 300 nM
CN(C)c1cc(-n2c(=O)n(C[C@H]3CC[C@H](NC(=O)c4cc(Cl)cnc4C(F)(F)F)CC3)c3ccccc32)ccn1 [Example 663, 5-chloro-N-((1r,4r)-4-((3-(2-(dimethylamino)pyridin-4-yl)-2-oxo-2,3-dihydro-1H-benzo[d]imidazol-1-yl)methyl)cyclohexyl)-2-(trifluoromethyl)nicotinamide] | < 300 nM
COCCNc1ccc(-n2c(=O)n(C[C@H]3CC[C@H](NC(=O)c4cc(Cl)cnc4C(F)(F)F)CC3)c3ccccc32)cn1 [Example 664, 5-chloro-N-((1r,4r)-4-((3-(6-((2-methoxyethyl)amino)pyridin-3-yl)-2-oxo-2,3-dihydro-1H-benzo[d]imidazol-1-yl)methyl)cyclohexyl)-2-(trifluoromethyl)nicotinamide] | < 300 nM
CNc1cc(-n2c(=O)n(C[C@H]3CC[C@H](NC(=O)c4cc(Cl)cnc4C(F)(F)F)CC3)c3ccccc32)ccn1 [Example 665, 5-chloro-N-((1r,4r)-4-((3-(2-(methylamino)pyridin-4-yl)-2-oxo-2,3-dihydro-1H-benzo[d]imidazol-1-yl)methyl)cyclohexyl)-2-(trifluoromethyl)nicotinamide] | < 300 nM
O=C(N[C@H]1CC[C@H](Cn2c(=O)n(-c3cnc4c(ccn4CCO)c3)c3ccccc32)CC1)c1cc(Cl)cnc1C(F)F [Example 666, 5-chloro-2-(difluoromethyl)-N-((1r,4r)-4-((3-(1-(2-hydroxyethyl)-1H-pyrrolo[2,3-b]pyridin-5-yl)-2-oxo-2,3-dihydro-1H-benzo[d]imidazol-1-yl)methyl)cyclohexyl)nicotinamide] | < 300 nM
Cc1ncc(Cl)cc1C(=O)N[C@H]1CC[C@H](Cn2c(=O)n(-c3ccc(-c4c[nH]cn4)cc3)c3ccccc32)CC1 [Example 667, N-((1r,4r)-4-((3-(4-(1H-imidazol-4-yl)phenyl)-2-oxo-2,3-dihydro-1H-benzo[d]imidazol-1-yl)methyl)cyclohexyl)-5-chloro-2-methylnicotinamide] | < 300 nM
CNc1ccc(-n2c(=O)n(C[C@H]3CC[C@H](NC(=O)c4cc(Cl)cnc4C)CC3)c3c(F)cccc32)cn1 [Example 668, 5-chloro-N-((1r,4r)-4-((7-fluoro-3-(6-(methylamino)pyridin-3-yl)-2-oxo-2,3-dihydro-1H-benzo[d]imidazol-1-yl)methyl)cyclo-hexyl)-2-methylnicotinamide] | < 300 nM
